Assays:
[1] = target: T1, KRAS-G12C (C51S/C80L/C118S) (Homo sapiens, UniProt P01116, C118S/C51S/C80L/G12C); experiment: SOS-catalyzed nucleotide exchange assay (Procedure A, TR-FRET); format: biochemical; details: 60 min preincubation, SOS + GTP, read-out: KRAS G12C GNE IC50
T1 construct: N-terminal biotin-acceptor peptide […]
From the text: (§1) Procedure for SOS-Catalyzed Nucleotide Exchange Assay for KRAS-G12C/D/V, G13D, HRAS, and NRAS (Procedure A)
(§2) Recombinant KRAS-G12C protein used in this assay has an additional triple mutation (C51S/C80L/C118S), whereas KRAS-G12D/V, G13D, HRAS and NRAS are in context of their WT protein sequence background. Specifically, the SOS-catalyzed nucleotide exchange assay utilizes a preformed TR-FRET complex containing a specific biotinylated RAS protein (KRAS-G12C/V/D, G13D, HRAS, NRAS; described above) with Bodipy-GDP, and Terbium-streptavidin. Compounds are preincubated with this complex for 60 minutes. Subsequently, recombinant human SOS protein and unlabeled GTP are added to initiate the exchange reaction. Small molecule inhibitors stabilize the Bodipy-GDP complex whereas the untreated protein rapidly exchanges Bodipy-GDP for unlabeled GTP resulting in reduced TR-FRET signal.
(§3) To assemble the preformed TR-FRET complexes, each biotinylated RAS protein is diluted to 2 μM in an EDTA Buffer (20 mM HEPES pH 7.5, 50 mM sodium chloride, 10 mM EDTA, and 0.01% Tween) and incubated at room temperature for one hour. This mixture is then further diluted to 90 nM in an Assay Buffer (20 mM HEPES pH 7.5, 150 mM sodium chloride, 10 mM magnesium chloride, and 0.005% Tween) containing 15 nM of Terbium-Streptavidin (Invitrogen, catalog #PV3577) and 900 nM of Bodipy-GDP (Invitrogen, catalog #G22360) and incubated at room temperature for six hours. It should be noted that this preformed TR-FRET complex for each of the RAS protein were made ahead of time, aliquoted and stored at −80° C. until the day of the experiment.
(§4) Each test compound (10 mM stock in DMSO) is diluted in DMSO to make a final-10-point, 3-fold dilution and is acoustically dispensed into a 384-well assay plate (Corning, catalog #3820) using an Echo 550 (Labcyte). Each well of the assay plate receives 3 μL of a specific 3× RAS preformed TR-FRET complex and 3 μL of Assay Buffer and is incubated at room temperature for 60 minutes (preincubation time). Each well then receives 3 μL of 3× recombinant human SOS protein and GTP (Sigma, G8877) in Assay Buffer and is incubated at room temperature for 30 minutes (G13D), 60 minutes (G12C/D, H/NRAS) or 90 minutes for G12V. The final reaction in each well of […] consists of 3 mM GTP, specific Ras and SOS proteins in the following concentrations: KRAS-G12C/SOS=3 nM/40 nM, KRAS-G12D/SOS=1 nM/40 nM, KRAS-G12V/SOS=1.25 nM/160 nM, KRAS-G13D/SOS=1.25 nM/0 nM, HRAS & NRAS=1.25 nM/40 nM.
(§5) The time-resolved fluorescence resonance energy transfer (TR-FRET) signal is measured on an Envision (PerkinElmer) plate reader: Excitation filter=340 nm; emission1=495 nm; emission2=520 nm; dichroic mirror=D400/D505; delay time=[…]. The signal of each well is determined as the ratio of the emission at 520 nm to that at 495 nm. […] The apparent effect as a function of compound concentration is fit to a four-parameter logistic equation.

KRAS-G12D = target: T2, KRAS-G12D (Homo sapiens, UniProt P01116, G12D); experiment: as above; format: biochemical; details: 60 min preincubation, SOS + GTP, read-out: KRAS G12D GNE IC50
T2 construct: N-terminal biotin-acceptor peptide […]
T2 sequence (P01116 with tags, fused parts or gaps isoform P01116-2 G12D): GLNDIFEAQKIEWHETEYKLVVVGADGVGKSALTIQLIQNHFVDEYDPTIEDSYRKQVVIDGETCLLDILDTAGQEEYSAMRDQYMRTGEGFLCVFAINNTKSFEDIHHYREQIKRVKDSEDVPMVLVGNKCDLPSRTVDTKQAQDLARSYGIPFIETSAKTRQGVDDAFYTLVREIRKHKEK
From the text: as §1, §2, §3, §4, §5

KRAS-G12V = target: T3, KRAS-G12V (Homo sapiens, UniProt P01116, G12V); experiment: as above; format: biochemical; details: 60 min preincubation, SOS + GTP, read-out: KRAS G12V GNE IC50
T3 construct: N-terminal biotin-acceptor peptide […]
T3 sequence (P01116 with tags, fused parts or gaps isoform P01116-2 G12V): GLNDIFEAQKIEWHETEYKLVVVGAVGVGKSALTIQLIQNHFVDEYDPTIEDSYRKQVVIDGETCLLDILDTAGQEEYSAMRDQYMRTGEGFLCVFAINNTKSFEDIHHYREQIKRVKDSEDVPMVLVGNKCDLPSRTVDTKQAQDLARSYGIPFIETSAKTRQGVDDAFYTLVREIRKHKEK
From the text: as §1, §2, §3, §4, §5

KRAS-G13D = target: T4, KRAS-G13D (Homo sapiens, UniProt P01116, G13D); experiment: as above; format: biochemical; details: 60 min preincubation, GTP, read-out: KRAS G13D GNE IC50
T4 construct: N-terminal biotin-acceptor peptide […]
T4 sequence (P01116 with tags, fused parts or gaps isoform P01116-2 G13D): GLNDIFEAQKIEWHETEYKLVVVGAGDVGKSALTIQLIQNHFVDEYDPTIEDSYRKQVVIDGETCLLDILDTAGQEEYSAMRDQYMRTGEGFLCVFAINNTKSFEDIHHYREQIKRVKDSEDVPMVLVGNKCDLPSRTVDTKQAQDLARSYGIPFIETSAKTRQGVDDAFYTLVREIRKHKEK
From the text: as §1, §2, §3, §4, §5

HRAS = HRAS (Homo sapiens, UniProt P01112); experiment: as above; format: biochemical; details: 60 min preincubation, SOS + GTP, read-out: HRAS GNE IC50
Sequence of HRAS (P01112 with tags, fused parts or gaps): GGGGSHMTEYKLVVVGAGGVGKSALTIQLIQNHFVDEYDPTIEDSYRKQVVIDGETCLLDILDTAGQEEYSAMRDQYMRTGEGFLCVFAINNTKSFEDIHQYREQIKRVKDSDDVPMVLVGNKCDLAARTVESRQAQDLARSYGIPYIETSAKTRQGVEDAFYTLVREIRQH
From the text: as §1, §2, §3, §4
(§6) The time-resolved fluorescence resonance energy transfer (TR-FRET) signal is measured on an Envision (PerkinElmer) plate reader: Excitation filter=340 nm; emission1=495 nm; emission2=520 nm; dichroic mirror=D400/D505; delay time=[…]. The signal of each well is determined as the ratio of the emission at 520 nm to that at 495 nm. Percent effect of each well is determined after normalization to control wells containing DMSO (no effect) or a saturating concentration of inhibitor (max effect). The apparent effect as a function of compound concentration is fit to a four-parameter logistic equation.

NRAS = NRAS (Homo sapiens, UniProt P01111); experiment: as above; format: biochemical; details: 60 min preincubation, SOS + GTP, read-out: NRAS GNE IC50
Sequence of NRAS (P01111 with tags, fused parts or gaps): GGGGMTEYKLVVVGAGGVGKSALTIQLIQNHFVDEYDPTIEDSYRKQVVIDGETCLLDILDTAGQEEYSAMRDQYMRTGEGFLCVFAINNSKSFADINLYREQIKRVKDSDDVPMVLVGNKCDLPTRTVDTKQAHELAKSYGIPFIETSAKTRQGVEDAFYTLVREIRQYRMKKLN
From the text: as §1, §2, §3, §4, §6

[2] = test system: PANC08.13 cells (homozygous KRAS-G12D activating mutation); experiment: Cellular phospho-ERK assay in G12D cell line; format: cell-based; details: Homo sapiens, PANC-08-13, 2 hours compound incubation, ratio of p-ERK vs. total ERK, read-out: PANC 0813 pERK IC50
Protocol: Procedure for Cellular Phospho-ERK Assay in G12D and G12V Cell Lines
PANC08.13 cells (ATCC® CRL-2551™), containing homozygous KRAS-G12D activating mutation, were cultured in growth medium made of RPMI1640-GlutaMAX™—I (ThermoFisher Scientific 61870) containing 15% heat inactivated fetal bovine serum (ThermoFisher Scientific 10091148)). SW620 cells (ATCC® […]), containing homozygous KRAS-G12V activating mutation, were cultured in growth medium that contains RPMI 1640-GlutaMAX™—I (ThermoFisher Scientific 61870) containing 10% heat inactivated fetal bovine serum (ThermoFisher Scientific 10091148).
Cells for the assay were harvested in growth medium after TrypLE (ThermoFisher scientific 12604021) digestion and were seeded in a 384-well collagen coated cell culture plate (Corning 356702) at a density of 10,000-15,000 cells/20 uL/well, and incubated at 37° C., 5% CO2 overnight. The compound (with 10 mM stock concentration) dose-response titrations were prepared [30 μM final ERK detection assay concentration and 1:3 dilutions, 10-point dose response] and appropriate amounts (270 nL) of test compounds were dispensed in a 384-well intermediate plate using an Echo 550 liquid handler. 30 uL/well of RPMI medium 1640-GlutaMAX™—I was added to the intermediate plate and the contents of the intermediate plate (10 uL/well) were then transferred to the 384-well collagen coated cell culture plate, which was incubated at 37° C., 5% CO2 for 2 hours. After removal of medium from the collagen coated cell culture plate, cells were lysed in lysis buffer from Alpha SureFire® Ultra™ Multiplex p-ERK and total ERK assay kit (PerkinElmer MPSU-PTERK) containing Halt™ Protease and Phosphatase inhibitor cocktail (ThermoFisher Scientific 78446) at room temperature with constant shaking at 300 rpm for 30 minutes. The cell lysates were then transferred to an OptiPlate-384 plate (PerkinElmer 6005620), and the phosphorylation of ERK (p-ERK) and total ERK levels were detected by Alpha SureFire® Ultra™ Multiplex p-EEK kit and total ERK assay kit (PerkinElmer MPSU-PTERK) following the manufacturer's protocol. Assay plates were read on a EnVision Multimode Plate Reader (PerkinElmer), and the ratio of p-ERK vs. total ERK in each well was used as the final readout. Dose response curves were analyzed using a 4-parameter logistic model to calculate IC50 values using Spotfire software.

T1 sequence (P01116 with tags, fused parts or gaps isoform P01116-2 G12C/C51S/C80L/C118S): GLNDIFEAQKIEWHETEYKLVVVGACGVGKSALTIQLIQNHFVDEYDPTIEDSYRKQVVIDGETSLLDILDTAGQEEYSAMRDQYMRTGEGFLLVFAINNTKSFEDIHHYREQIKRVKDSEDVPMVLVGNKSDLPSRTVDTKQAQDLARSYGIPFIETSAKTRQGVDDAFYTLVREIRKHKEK

IC50 [1] [nM] | IC50 (KRAS-G12D) [nM] | IC50 (KRAS-G12V) [nM] | IC50 (KRAS-G13D) [nM] | IC50 (HRAS) [nM] | IC50 (NRAS) [nM] | IC50 [2] [nM] | SMILES
390 | 2360 | 273 | 936 | > 11100 | > 11100 |  | CC1(NC[C@@]2(COc3nc(N4CCCOCC4)c4cc(Cl)c(-c5ccc(F)c6sc(N)c(C#N)c56)c(F)c4n3)CC2(F)F)COC1 [compound 29, 2-amino-4-(6-chloro-2-(((R)-2,2-difluoro-1-(((3-methyloxetan-3-yl)amino)methyl)cyclo-propyl)methoxy)-8-fluoro-4-(1,4-oxazepan-4-yl)quinazolin-7-yl)-7-fluorobenzo[b]thiophene-3-carbonitrile]
1180 | 2540 | 152 | 748 | > 11100 | > 11100 |  | N#Cc1c(N)sc2c(F)ccc(-c3c(Cl)cc4c(N5CCCOCC5)nc(OC[C@]5(CN6CCOCC6)CC5(F)F)nc4c3F)c12 [compound 31, 2-amino-4-(6-chloro-2-(((R)-2,2-difluoro-1-(morpholinomethyl)cy-clopropyl)methoxy)-8-fluoro-4-(1,4-oxazepan-4-yl)quinazolin-7-yl)-7-fluorobenzo[b]thiophene-3-carbonitrile]
 | 8.27 | 3.54 |  |  |  | 48.9 | N#Cc1c(N)sc2c(F)ccc(-c3c(Br)cc4c(N5CCCOCC5)nc(OC[C@@]56CCCN5C[C@H](F)C6)nc4c3F)c12 [compound 37, 2-amino-4-(6-bromo-8-fluoro-2-(((2R,7aS)-2-fluorotetrahydro-1H-pyrrolizin-7a(5H)-yl)methoxy)-4-(1,4-oxazepan-4-yl)quinazolin-7-yl)-7-fluorobenzo[b]thiophene-3-carbonitrile]

Further lines, the compound ahead of its results:

SMILES | IC50 [1] [nM] | IC50 (KRAS-G12D) [nM] | IC50 (KRAS-G12V) [nM] | IC50 (KRAS-G13D) [nM] | IC50 (HRAS) [nM] | IC50 (NRAS) [nM] | IC50 [2] [nM]
N#Cc1c(N)sc2c(F)ccc(-c3c(C(F)(F)F)cc4c(N5CCCOCC5)nc(OC[C@@]56CCCN5C[C@H](F)C6)nc4c3F)c12 (single isomer, unassigned) [Ex. 35] | 5.51 | 2.33 | 1.24 | 1.13 | 1170 | > 11100 | 12.2
N#Cc1c(N)sc2c(F)ccc(-c3c(Cl)cc4c(N5CCCOCC5)nc(OC[C@]5(CO)CC5(F)F)nc4c3F)c12 [Ex. 32, 2-amino-4-(6-chloro-2-(((R)-2,2-difluoro-1-(hydroxymethyl)cyclopropyl)methoxy)-8-fluoro-4-(1,4-oxazepan-4-yl)quinazolin-7-yl)-7-fluorobenzo[b]thiophene-3-carbonitrile] | 885 |  | 3440 | 798 | > 11100 | > 11100 | 
N#Cc1c(N)sc2c(F)ccc(-c3c(Br)cc4c(N5C6COCC5C6)nc(OC[C@@]56CCCN5C[C@H](F)C6)nc4c3F)c12 [Ex. 36, 4-(4-(3-oxa-6-azabicyclo[3.1.1]heptan-6-yl)-6-bromo-8-fluoro-2-(((2R,7aS)-2-fluorotetrahydro-1H-pyrrolizin-7a(5H)-yl)methoxy)quinazolin-7-yl)-2-amino-7-fluorobenzo[b]thiophene-3-carbonitrile] | 37.1 | 9.34 |  | 20.2 | > 11100 | > 11100 | 103
Cc1cc(N)nc(-c2c(F)cc3c(N4CC[C@@H]5[C@@H](C#N)[C@@H]5CC4)nc(OC[C@@]45CCCN4C[C@H](F)C5)nc3c2F)c1C(F)(F)F [Ex. 45, (1R,7S,8S)-4-(7-(6-amino-4-methyl-3-(trifluoromethyl)pyridin-2-yl)-6,8-difluoro-2-(((2R,7aS)-2-fluorotetrahydro-1H-pyrrolizin-7a(5H)-yl)methoxy)quinazolin-4-yl)-4-azabicyclo[5.1.0]octane-8-carbonitrile] | 1750 | 4470 | 1490 | ≥ 11100 | > 11100 | > 11100 | 
COCC1CCOCCN1c1nc(OC[C@@]23CCCN2C[C@H](F)C3)nc2c(F)c(-c3ccc(F)c4sc(N)c(C#N)c34)c(Cl)cc12 (stereo partly drawn) [compound 16, 2-amino-4-(6-chloro-8-fluoro-2-(((2R,7aS)-2-fluorotetrahydro-1H-pyrrolizin-7a(5H)-yl)methoxy)-4-(5-(methoxymethyl)-1,4-oxazepan-4-yl)quinazolin-7-yl)-7-fluorobenzo[b]thio-phene-3-carbonitrile] | 14.7 | 25.2 | 9.58 | 10.1 | > 11100 | > 11100 | 274
CC1(NC[C@@]2(COc3nc(N4CCCOCC4)c4cc(Cl)c(-c5ccc(F)c6sc(N)c(C#N)c56)c(F)c4n3)CC2(F)F)CC1 [compound 27, 2-amino-4-(6-chloro-2-(((R)-2,2-difluoro-1-(((1-methylcyclopropyl)a-mino)methyl)cyclopro-pyl)methoxy)-8-fluoro-4-(1,4-oxazepan-4-yl)quinazolin-7-yl)-7-fluorobenzo[b]thiophene-3-carbonitrile] | 243 | 4980 | 148 | 846 | > 11100 | > 11100 | 
